Read-outs that look alike come from different tables or passages of the source.
Assays:
morphinone reductase [1] = molecular target: T1, morphinone reductase (Pseudomonas putida, UniProt Q51990); experiment: biochemical; set-up: initiator Met absent; species or system Pseudomonas putida M10; conditions: for remaining activity at 1000 µM: 1 mM; for remaining activity at 1000 µM / remaining activity at 500 µM: read-out: Activity as percentage of control activity; for Inhibition of enzyme (in words): pre-incubation with purified enzyme
Procedure: Assays were carried out at 30° C.
Purified enzyme was incubated with the following possible inhibitors: copper sulphate, the thiol-blocking agent p-hydroxymercuribenzoate (pHMB), the thiol-reducing agent dithiothreitol (DTT) and the metal-complexing agents ethylenediaminetetraacetic acid (EDTA) and 8- hydroxyquinoline (8HQ). Incubation was in the standard assay mixture without codeinone or NADH, firstly for 30 min at room temperature and secondly for 16 hours at 4° C. The enzyme concentration was approximately 3.3 μg/ml, 1/100 that of the purified enzyme stock.

morphinone reductase [2] = molecular target: T1, morphinone reductase; conditions: for Enzyme activity against compound as substrate: forward (reduction) direction, with NADH; for Enzyme activity in the reverse direction: reverse reaction
morphinone reductase [3] = molecular target: T1, morphinone reductase; experiment: Inhibition of the reaction with codeinone by compounds added to the standard assay mixture; type: biochemical, Pseudomonas putida M10; set-up: initiator Met absent; conditions: for Inhibition of the reaction with codeinone: added at 0.3 mM to the standard assay mixture
Procedure: Enzyme activity was tested with a variety of substrates.

[4] = molecular target: T2, deflavo-morphinone reductase (Pseudomonas putida, UniProt Q51990); experiment: Reconstitution of deflavo-morphinone reductase by incubation with flavins; type: biochemical, Pseudomonas putida M10
T2 construct: FMN removed by ammonium sulphate (apoenzyme); initiator Met absent
Procedure: Flavin was dissociated from morphinone reductase by boiling for 3 minutes and removal of denatured protein by ultrafiltration. […] Thin layer chromatography (TLC) of flavins was performed on silica plates using solvent systems 2 and 4 of Fazekas and Kokai (Met. Enzymol. (1971) 18B:385-398), viz. 12:3:5 n-butanol:acetic acid:water and 2% disodium hydrogen phosphate in water. Flayins on TLC plates were visualised by their yellow fluorescence when illuminated by ultraviolet light at 366 nm. Luciferase assay of flavins was performed using the commercially-availablepreparation of Vibrio harveyii luciferase of Sigma. The reaction mixture contained 0.1 mg/ml luciferase preparation, 0.1 mg/ml bovine serum albumin, 0.2 mM n-decanal, 0.5 mM NADH and 1.5mM dithiothreitol. Assays were carried out at 24° C. and light emission was measured using a BioOrbit 1250 Luminometer (Labsystems (UK) Ltd., Basingstoke, U.K.). Deflavomorphinone reductase was prepared by ammonium sulphate treatment, as described by Husain and Massey (1978) Met. Enzymol. 53:429-437.
The liberated flavin comigrated with flavin mononucleotide (FMN) and not with flavin adenine dinucleotide (FAD) or riboflavin in two thin layer chromatography systems. The liberated flavin gave a positive result in the luciferase assay which is highly specific for FMN (Chappelle and Picciolo, Met. Enzymol (1971) 18B:381-385). […]

morphinone reductase [5] = molecular target: T1, morphinone reductase; experiment: Coupled enzyme system (morphine dehydrogenase then morphinone reductase), HPLC analysis; type: biochemical, Pseudomonas putida M10; set-up: initiator Met absent
Procedure: Reverse-phase HPLC analysis was performed on a Waters component system (Millipore Waters U.K. Limited, Watford) consisting of a model 510 pump, a model 712 WISP autoinjector and a Waters 994 programmable photodiode array detector set to 235 nm and 280 nm, 0-1 V fsd. Separation of samples (50 μl ) was achieved on a 5 μm C18 Spherisorb ODS column (4.6×250mm) (Anachem limited, Luton) with an isocratic solvent system, delivered at a flow rate of 1 ml/min. The mobile phase consisted of filter-sterilised 15 mM KH2 PO4 (adjusted to pH 3.5 with 1 M H3 PO4) in 30% (v/v) HPLC grade acetonitrile (degassed for 40 min prior to use). Integrations were performed using Maxima 820 software and UV absorbance scans of resultant peaks were measured between 190 and 350 nm using the programmable photodiode array detector.
At regular intervals, 1 ml samples were removed and the reaction stopped by the addition of 2 μl glacial acetic acid (HPLC grade). The precipitated protein was subsequently pelleted at 13,000 rpm in an MSE microfuge.

[6] = system: COc1ccc2c3c1O[C@H]1C(=O)C=C[C@H]4[C@@H](C2)N(C)CC[C@]314; experiment: purified protein, by the assay type; conditions: 30.0 °C
[7] = system: COc1ccc2c3c1O[C@H]1C(=O)CC=C4[C@@H](C2)N(C)CC[C@]431; experiment: purified protein, by the assay type; conditions: 30.0 °C
[8] = system: NC(=O)C1=CN([C@@H]2O[C@H](COP(=O)(O)OP(=O)(O)OC[C@H]3O[C@@H](n4cnc5c(N)ncnc54)[C@H](O)[C@@H]3O)[C@@H](O)[C@H]2O)C=CC1; experiment: purified protein, by the assay type; conditions: 30.0 °C

`O[C@H](CS)[C@H](O)CS` (racemic) [DTT, dithiothreitol] was tested, and the remaining activity at 1000 µM (morphinone reductase [1]; 16 h 4°C.) was 94% and the remaining activity at 1000 µM (morphinone reductase [1]; 0.5 h, 30 min 20°C.) was 94%.
`O=C1C=CCCC1` [2-cyclohexen-1-one] was tested, and the “Enzyme activity against compound as substrate” value (shortened to “Enzyme activity … as substrate”) (morphinone reductase [2]) was “Very slight activity” and the “Inhibition of activity against codeinone” value (morphinone reductase [3]; added to the standard assay at 1 mM) was “inhibited the reaction with codeinone”.
`Oc1cccc2cccnc12` [8HQ, 8-hydroxyquinoline] was tested, and the “Activity as percentage of control activity” value (from here on “Activity as percentage”) (morphinone reductase [1]; morphinone reductase, 30 min, 50 µM) was 94 and the “Activity as percentage” value (morphinone reductase [1]; morphinone reductase, 960 min, 50 µM) was 91.
In the case of `COc1ccc2c3c1O[C@H]1C(=O)C=C[C@H]4[C@@H](C2)N(C)CC[C@]314` [Codeinone, codeinone], the “Enzyme activity … as substrate” value (morphinone reductase [2]) is reported as “Activity was detected”.
With `O=S(=O)([O-])[O-].[Cu+2]` [CuSO4, copper sulphate] the “Activity as percentage” value (morphinone reductase [1]; 0.01 Mm, 30 min 20°C.) was 0% and the “Inhibition of enzyme (in words)” value (morphinone reductase [1]) was “highly inhibitory”.
`O=C(O)CN(CCN(CC(=O)O)CC(=O)O)CC(=O)O` [EDTA, ethylenediaminetetraacetic acid] was tested, and the remaining activity at 500 µM (morphinone reductase [1]; 0.5 h) was 100% and the remaining activity at 500 µM (morphinone reductase [1]; 16 h) was 97%.
For `Cc1cc2nc3c(=O)[nH]c(=O)nc-3n(C[C@H](O)[C@H](O)[C@H](O)COP(=O)(O)OP(=O)(O)OC[C@H]3O[C@@H](n4cnc5c(N)ncnc54)[C@H](O)[C@@H]3O)c2cc1C` [FAD, flavin adenine dinucleotide], the “Restoration of enzyme activity after incubation with flavin (in words)” value [4] was “did not cause restoration”.
For `NC(=O)C1=CN([C@@H]2O[C@H](COP(=O)(O)OP(=O)(O)OC[C@H]3O[C@@H](n4cnc5c(N)ncnc54)[C@H](OP(=O)(O)O)[C@@H]3O)[C@@H](O)[C@H]2O)C=CC1` [NADPH], the “Enzyme activity with alternative cofactor” value (morphinone reductase [2]; NADPH replaced NADH) was “No activity”.
For `COc1ccc2c3c1O[C@H]1C(=O)CC=C4[C@@H](C2)N(C)CC[C@]431` [Neopinone, neopinone], the “Enzyme activity … as substrate” value (morphinone reductase [2]) was “Activity was detected”.
With `COc1ccc2c3c1O[C@H]1[C@@H](O)C=C[C@H]4[C@@H](C2)N(C)CC[C@@]341` [codeine] the “Enzyme activity … as substrate” value (morphinone reductase [2]) was “No activity”.
`C[C@]12CCC(=O)C=C1CC[C@@H]1[C@@H]2C(=O)C[C@@]2(C)[C@H]1CC[C@]2(O)C(=O)CO` [cortisone] was tested, and the “Enzyme activity … as substrate” value (morphinone reductase [2]) was “No activity” and the “Inhibition of the reaction with codeinone” value (morphinone reductase [3]) was “inhibit greatly”.
With `COc1ccc2c3c1O[C@H]1[C@@H](O)CC[C@H]4[C@@H](C2)N(C)CC[C@@]341` [dihydrocodeine] the “Enzyme activity in the reverse direction” value (morphinone reductase [2]) was “No reverse reaction”.
In the case of `COc1ccc2c3c1O[C@H]1C(=O)CC[C@H]4[C@@H](C2)N(C)CC[C@]314` [hydrocodone], the “Enzyme activity in the reverse direction” value (morphinone reductase [2]) is reported as “No activity in the reverse direction”.
For `COc1ccc2c3c1O[C@H]1[C@H](O)C=C[C@H]4[C@@H](C2)N(C)CC[C@@]341` [isocodeine], the “Enzyme activity … as substrate” value (morphinone reductase [2]) was “No activity”.
For `CN1CC[C@]23c4c5ccc(O)c4O[C@H]2C(=O)C=C[C@H]3[C@H]1C5` [morphinone], the “Enzyme activity … as substrate” value (morphinone reductase [5]) was “Activity against morphinone was demonstrated”.
With `COc1ccc2c3c1O[C@H]1C(=O)CC[C@@]4(O)[C@@H](C2)N(C)CC[C@]314` [oxycodone] the “Enzyme activity in the reverse direction” value (morphinone reductase [2]) was “No reverse reaction”.
`CN1CC[C@]23c4c5ccc(O)c4O[C@H]2C(=O)CC[C@@]3(O)[C@H]1C5` [oxymorphone] was tested, and the “Enzyme activity in the reverse direction” value (morphinone reductase [2]) was “No reverse reaction”.
In the case of `O=C(O)c1cc[c]([Hg+])cc1.[OH-]` [pHMB, p-hydroxymercuribenzoate], the “Activity as percentage” value (morphinone reductase [1]; 0.01 mM, 30 min 20°C.) is reported as 37%, the “Activity as percentage” value (morphinone reductase [1]; 0.01 mM, 16 h 4°C.) is reported as 19% and the “Activity as percentage” value (morphinone reductase [1]; 0.02 mM, 30 min 20°C.) is reported as 0%. The “Inhibition of enzyme (in words)” value (morphinone reductase [1]) was “highly inhibitory”.
In the case of `CC(=O)[C@H]1CC[C@H]2[C@@H]3CCC4=CC(=O)CC[C@]4(C)[C@H]3CC[C@]12C` [progesterone], the “Enzyme activity … as substrate” value (morphinone reductase [2]) is reported as “No activity” and the “Inhibition of the reaction with codeinone” value (morphinone reductase [3]) is reported as “inhibit greatly”.
In the case of “morphinone reductase (Pseudomonas putida)”, the Km [6] is reported as 250 µM, the Vmax [6] is reported as 32.0 U/mg and the kcat [6] is reported as 44.4 s⁻¹. For the same compound, the kcat/Km [6] was 178000 M⁻¹ s⁻¹, the Km [7] was 430 µM and the Vmax [7] was 16.6 U/mg. For the same compound, the kcat [7] was 23.0 s⁻¹, the kcat/Km [7] was 53500 M⁻¹ s⁻¹ and the Km [8] was 50 µM.

Reference: patent US5571685A (priority 1992, dated 1996)
